Laboratory results taken from paper PMC3103436 (Journal of Translational Medicine, 2011).

Columns and labels:
HLMs = test: Chemical inhibition assays of BBR metabolism in HLMs; assay type: in vitro ADME, human; details: BBR 15 μM, inhibitor 5 μM, 30 min, control without inhibitor = 100%
Protocol: (§1) The incubation was performed in duplicates.
The incubations were performed in duplicates.
(§2) The flow-rate was 0.2 ml/min. […] The MS was operated in positive ESI mode. […] Data were analyzed by Xcalibur 1.2 software.

CYP2C9 = target: T1, CYP2C9 (Homo sapiens, UniProt P11712); test: BBR metabolism in recombinant human CYP450 isoenzyme; assay type: in vitro ADME; details: BBR 20 μM, 50 pmol/ml rCYP450, 30 min
T1 construct: purchased BD Gentest; host or cells: baculovirus-insect cells
Protocol: The experiment was performed with the condition described in the method using HLMs for transformation. […] Control microsome prepared from insect cells, which were infected with wild-type baculovirus, severed as a negative control. The incubation was performed in duplicates.
Sample analysis was performed using an LC-MS/MS system (Thermo-Finnigan, San Jose, CA, USA), which consisted of a Surveyor LC pump with an on-line degasser, a Surveyor autosampler and a TSQ Quantum triple-quadrupole mass spectrometer equipped with an ESI probe. A Waters XTerra® MS C18 (2.1 ×50 mm, 3.5 μm) column (Milford, MA, USA) was used for separation at 25°C. The mobile phase consisted of 0.2% acetic acid in water (A) and 100% acetonitrile (B). The flow-rate was 0.2 ml/min. […] The column was allowed to equilibrate for 10 min after each run. Only the data from 2 min to 15 min was acquired by MS. The MS was operated in positive ESI mode. Nitrogen was used as both the sheath and auxiliary gas at a pressure of 35 and 10 arbitrary units, respectively. The spray voltage was set at 4.0 kV and the capillary temperature was at 270°C. […] The most abundant product ion of each chemical was chosen for selected reaction monitoring (SRM). Data were analyzed by Xcalibur 1.2 software.

LDLR mRNA = LDLR mRNA real-time RT-PCR in HepG2 cells; assay type: cell-based, human; details: HepG2, 40 μM, 8 hrs
Protocol: (§3) The Human hepatoma cell line HepG2 was obtained from the American Tissue Culture Collection (ATCC, USA). HepG2 cells were grown in Eagle's Minimum Essential Medium (GIBCO) supplemented with 10% fetal bovine serum (GIBCO), 1% non-essential amino acids (GIBCO) and 1% antibiotics (100 units/ml of penicillin and 100 μg/ml of streptomycin), and incubated at 37°C in a humidified atmosphere with 5% CO2.
(§4) The study compounds were diluted in culture medium prior to use.
(§5) Total cellular RNAs were isolated by the Ultraspec RNA lysis solution (Biotecxs Laboratory, Houston, TX) by following the vender's instruction. Total RNAs were reversely transcribed into cDNAs using the Reverse Transcription System (Promega, Madison, WI). Quantitative real time PCR was performed with these cDNAs as described previously, with β-Actin as an internal control. Normalized InsR or LDLR mRNA expression levels were plotted as fold of the untreated control. The primers used were described previously.

InsR mRNA = InsR mRNA real-time RT-PCR in HepG2 cells; assay type: cell-based, human; details: HepG2, 20 μM, 8 hrs, fold of untreated control
Protocol: as §3, §4, §5

InsR = test: Double immune-staining and flow cytometry, cell-surface protein expression in HepG2; assay type: cell-based, human; details: HepG2, 8 hrs; BBR 27 μM, simvastatin 1 μM, rosiglitazone 10 μM
Protocol: (§6) The Human hepatoma cell line HepG2 was obtained from the American Tissue Culture Collection (ATCC, USA). […] The study compounds were diluted in culture medium prior to use. […] The corresponding isotype-matched, nonspecific mouse and rabbit IgGs were used respectively as controls for nonspecific staining. After washing in PBS, cells were stained with a fluorescein isothiocyanate (FITC)-conjugated goat anti-mouse IgG (green color, Santa Cruz Biotechnology), as well as a tetramethyl rhodamine isothiocyanate (TRITC)-conjugated goat anti-rabbit IgG (red color, Santa Cruz Biotechnology). The fluorescence intensities were analyzed in a FACS (FACSort, Becton Dickinson).

LDLR = test: as above; assay type: cell-based, human; details: HepG2, 8 hrs; BBR 27 μM, simvastatin 1 μM, rosiglitazone 10 μM
Protocol: as §6

AMPK = test: AMPK-alpha phosphorylation immunoblot in HepG2 cells; assay type: cell-based, human; details: HepG2, 20 μM, 24 hrs
Protocol: as §3, §4
Sample cells were rinsed with phosphate-buffered saline and lysed in SDS-PAGE loading buffer. Cell lysates were subjected to 8% SDS-PAGE for protein separation, and protein bands were transferred onto polyvinylidene difluoride membranes (Millipore). The amount of protein and extent of phosphorylation were estimated using the following primary rabbit antibodies, anti-phospho-AMPK-α-Thr-172 antibody, anti-AMPK-α antibody as well as anti-β-actin antibody (Cell signaling Technology, USA). The secondary antibody was peroxidase-conjugated goat anti-rabbit antibody (Cell signaling Technology, USA).

[1] = ref [34]; cited from earlier work
[2] = oral administration, cited from earlier work
[3] = BBR metabolites in rat liver after oral BBR, LC-MS/MS; assay type: in vivo, Male Wistar rats; details: 3 hrs after BBR oral administration 200 mg/kg; for Detection of metabolite in rat liver: LC-MS/MS; for Relative level of metabolite in rat liver: among M1-M4
Protocol: Male Wistar rats (200-240 g, 8-week-old) purchased from Vital River Laboratories (Beijing, China) fasted overnight and were free access to water before drug administration. […] 2 g of the liver sample was washed with 5 mL normal saline, cut into small pieces and extracted with 3-fold volume acetonitrile. After vortexed for 3 min, the extract was centrifuged at 16000 g for 15 min at 4°C and the supernatant was diluted with 0.2% acetic acid. Ten microlitre dilution aliquot was injected into the LC-MS/MS system for analysis.
as §2

rCYP450 isoenzymes = test: Detection of BBR metabolites after incubation with rCYP450 isoenzymes; assay type: in vitro ADME, human; details: cell-free reaction, LC-MS/MS
Protocol: as §1, §2

human liver microsomes = test: BBR metabolism in human liver microsomes (HLMs); assay type: in vitro ADME; details: cell-free reaction, LC-MS/MS
Protocol: Incubation conditions were optimized to ensure the linearity with respect to the microsomal protein concentration and incubation time. […] After incubation of the mixture in a 37°C water bath with opening to the air, the reaction lasted for 30 min and was terminated by addition of 800 μl cold acetonitrile. Internal standard (40 μg/ml ampicillin, dissolved in acetonitrile) was added into the mixture, and then centrifuged at 16000 g for 15 min at 4°C. The supernatant was aspirated, followed by dilution in 0.2% acetic acid. 10 μl of the aliquot was injected into the LC-MS/MS system for analysis. Control samples were incubated without NADPH. The incubation was performed in duplicates.
as §2

T1 sequence (P11712 whole entry): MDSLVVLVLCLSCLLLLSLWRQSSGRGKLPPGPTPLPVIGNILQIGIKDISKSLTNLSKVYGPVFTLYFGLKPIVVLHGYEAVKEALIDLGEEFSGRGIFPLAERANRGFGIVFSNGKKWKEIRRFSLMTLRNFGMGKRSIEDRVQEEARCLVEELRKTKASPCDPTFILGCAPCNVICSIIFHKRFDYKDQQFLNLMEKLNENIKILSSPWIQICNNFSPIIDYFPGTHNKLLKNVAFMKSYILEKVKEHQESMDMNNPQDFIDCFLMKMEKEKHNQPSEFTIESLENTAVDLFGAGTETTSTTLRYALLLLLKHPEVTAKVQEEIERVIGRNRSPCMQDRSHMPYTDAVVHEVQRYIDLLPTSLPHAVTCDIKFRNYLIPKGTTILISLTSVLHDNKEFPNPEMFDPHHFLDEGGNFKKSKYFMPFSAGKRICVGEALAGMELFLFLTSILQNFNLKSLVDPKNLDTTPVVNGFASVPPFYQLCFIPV

| SMILES | Effect on LDLR mRNA expression (LDLR mRNA) | Effect on cell-surface InsR protein expression (InsR) | Effect on cell-surface LDLR protein expression (LDLR) | AMPK activation (AMPK-alpha phosphorylation) (AMPK) | Detection of metabolite in rat liver [3] | Detection of metabolite after incubating BBR with rCYP450s (rCYP450 isoenzymes) | Detection of metabolite after incubating BBR with HLMs (human liver microsomes) | further results |
| --- | --- | --- | --- | --- | --- | --- | --- | --- |
| O=c1cc(-c2ccccc2)oc2c1ccc1ccccc12 [ANF, α-naphthoflavone] |  |  |  |  |  |  |  | Decrease of M2 formation (HLMs): about 40% |
| COc1ccc2cc3[n+](cc2c1OC)CCc1cc2c(cc1-3)OCO2 [BBR, Berberine] | strongest up-regulator | up-regulatory effect | up-regulatory effect | most active compound |  |  |  | Transformation of BBR into metabolites by CYP2C9 (CYP2C9): very weak effect; Increase of InsR mRNA level (InsR mRNA): over 2 folds; Share of BBR entering into blood stream (absorption in human gut) [1]: less than 10%; Reduction of blood cholesterol, triglyceride and glucose ([2]; patients with hyperlipidemia and type 2 diabetes, ref [2],[3],[5]-[7]): significant reduction; Side-effects on liver, kidney and muscle ([2]; patients, ref [2],[5]): no side-effects |
| CC(=O)N1CCN(c2ccc(OCC3COC(Cn4ccnc4)(c4ccc(Cl)cc4Cl)O3)cc2)CC1 (stereo not drawn) [KET, ketoconazole] |  |  |  |  |  |  |  | Decrease of M2 formation (HLMs): not |
| COc1ccc2cc3[n+](cc2c1O)CCc1cc2c(cc1-3)OCO2 [M1, berberrubine] | remained to be active |  |  | increased the activity of AMPK but with a less potency | detectable | not detectable | not found | Relative level of metabolite in rat liver [3]: lowest; LDLR mRNA up-regulating activity as percent of that of BBR (LDLR mRNA): 35% |
| COc1c(O)ccc2cc3[n+](cc12)CCc1cc2c(cc1-3)OCO2 [M2, thalifendine] | remained to be active |  |  | increased the activity of AMPK but with a less potency | detectable | detectable | detectable | Relative level of metabolite in rat liver [3]: highest level; LDLR mRNA up-regulating activity as percent of that of BBR (LDLR mRNA): 26% |
| COc1ccc2cc3[n+](cc2c1OC)CCc1cc(O)c(O)cc1-3 [M3, demethyleneberberine] | without effect |  |  | not significant | detectable | detectable | detectable |  |
| COc1cc2c(cc1O)CC[n+]1cc3c(OC)c(OC)ccc3cc1-2 [M4, jatrorrhizine] | without effect |  |  | not significant | detectable | not detectable | not found |  |
| CN(CCOc1ccc(CC2SC(=O)NC2=O)cc1)c1ccccn1 (stereo not drawn) [rosiglitazone] |  | effect on neither LDLR nor InsR | effect on neither LDLR nor InsR |  |  |  |  |  |
| CCC(C)(C)C(=O)O[C@H]1C[C@@H](C)C=C2C=C[C@H](C)[C@H](CC[C@@H]3C[C@@H](O)CC(=O)O3)[C@H]21 [simvastatin] |  | not InsR | increased LDLR expression only |  |  |  |  |  |
